Reference: US20250304990A1, “HERBICIDE RESISTANCE” (SYNGENTA CROP PROTECTION AG, priority 2021, published 2025)
Several values for one entry are separate records, joined by “and”; a condition that tells them apart may be missing. Identical values can stand only once.

Key:
Cf WT = test: Dose response test, growth in 96-well plates; format: cell-based, Chlorella fusca; settings: strain Cf WT; concentration at which no growth is observed, visual inspection
Description: (§1) Dose response tests with B5U were set-up in 96-well, flat bottomed plates. 200 μl medium was used in each well. 2 μl of 6 day old culture was added to each well, then 2 μl of DMSO or dilution of test compound were added to respective wells. 2-fold dilutions starting at 100 ppm were used per well. Plates were incubated at 25° C., 50 μmol/m^2/s, 16 hour photoperiod.
(§2) This was assessed by a visual inspection of growth in the 96-well plate. The inhibitor concentration at which no growth is observed is then defined as the LD.
(§3) Starting dose was 100 ppm and decreasing with 2-fold dilutions with C. fusca wt, the five HST mutants and the 10 compounds to which the wt is sensitive. Plates were incubated at 25° C., 50 μmol/m2/s, 16 hour photoperiod.

Cf-496-15 = test: Dose response test, growth in 96-well plates; format: cell-based, Chlorella fusca; settings: strain Cf-496-15 (T277N); no growth, visual inspection
Description: as §1, §2, §3

Cf-496-19 = test: Dose response test, growth in 96-well plates; format: cell-based, Chlorella fusca; settings: strain Cf-496-19 (F275I); no growth, visual inspection
Description: as §1, §2, §3

Cf-496-28 = test: Dose response test, growth in 96-well plates; format: cell-based, Chlorella fusca; settings: strain Cf-496-28 (V276A); no growth, visual inspection
Description: as §1, §2, §3

Cf-496-8 = test: Dose response test, growth in 96-well plates; format: cell-based, Chlorella fusca; settings: strain Cf-496-8 (M278L & F279I); no growth, visual inspection
Description: as §1, §2, §3

Cf-496-94 = test: Dose response test, growth in 96-well plates; format: cell-based, Chlorella fusca; settings: strain Cf-496-94 (F275L); no growth, visual inspection
Description: as §1, §2, §3

Cf-496-13 = test: Dose response test, growth in 96-well plates; format: cell-based, Chlorella fusca; settings: strain Cf-496-13; no growth, visual inspection
Description: as §1, §2

Cf-496-21 = test: Dose response test, growth in 96-well plates; format: cell-based, Chlorella fusca; settings: strain Cf-496-21; no growth, visual inspection
Description: as §1, §2

Cf-496-35 = test: Dose response test, growth in 96-well plates; format: cell-based, Chlorella fusca; settings: strain Cf-496-35; no growth, visual inspection
Description: as §1, §2

Cf-496-51 = test: Dose response test, growth in 96-well plates; format: cell-based, Chlorella fusca; settings: strain Cf-496-51 (F275I); no growth, visual inspection
Description: as §1, §2

Cf-496-54 = test: Dose response test, growth in 96-well plates; format: cell-based, Chlorella fusca; settings: strain Cf-496-54; no growth, visual inspection
Description: as §1, §2

Cf-496-65 = test: Dose response test, growth in 96-well plates; format: cell-based, Chlorella fusca; settings: strain Cf-496-65; no growth, visual inspection
Description: as §1, §2

Cf-496-78 = test: Dose response test, growth in 96-well plates; format: cell-based, Chlorella fusca; settings: strain Cf-496-78 (F275I); no growth, visual inspection
Description: as §1, §2

Cf-496-82 = test: Dose response test, growth in 96-well plates; format: cell-based, Chlorella fusca; settings: strain Cf-496-82; no growth, visual inspection
Description: as §1, §2

Cf-496-85 = test: Dose response test, growth in 96-well plates; format: cell-based, Chlorella fusca; settings: strain Cf-496-85; no growth, visual inspection
Description: as §1, §2

Cf-496-88 = test: Dose response test, growth in 96-well plates; format: cell-based, Chlorella fusca; settings: strain Cf-496-88; no growth, visual inspection
Description: as §1, §2

Cf-496-90 = test: Dose response test, growth in 96-well plates; format: cell-based, Chlorella fusca; settings: strain Cf-496-90; no growth, visual inspection
Description: as §1, §2

Cf-496-97 = test: Dose response test, growth in 96-well plates; format: cell-based, Chlorella fusca; settings: strain Cf-496-97; no growth, visual inspection
Description: as §1, §2

Cf-496-75 = test: Dose response test, growth in 96-well plates; format: cell-based, Chlorella fusca; settings: strain Cf-496-75; no growth, visual inspection
[1] = system: D4292 (F276I mutant Arabidopsis thaliana HST) containing tobacco plant; test: Herbicide damage score after spraying, Example 3; format: in vivo; settings: T1 B5u 500 gai/ha, averaged across transgenic population
Description: (§4) In order to determine if the newly discovered mutations detailed in Example 1 confer resistance to HST inhibiting compounds when expressed in plants, GM tobacco lines are to be produced and tested with HST inhibiting compounds. Transgenic tobacco plants expressing the Arabidopsis HST gene with and without mutations were tested.
(§5) Populations of transgenic tobacco comprising 20-30 transgenic events per plant transformation constructs were generated as described in Example 2. These lines were clonally propagated and 1 clone per event was sprayed with 500, 100 or 50 g ai/ha of compound 1+0.2% Genapol X080 with a spray volume of 200 L/Ha (“g ai/ha” refers to grams of active compound per hectare).
(§6) Herbicidal damage was visually assessed across the population and a herbicide damage score given at 7 and 14 days. A score of 0 indicates no visible damage or stunting whereas a score of 100 indicates a complete death of the plant. 20 transgenic events (i.e. individual transgenic plants) from each GM tobacco line were transplanted to soil 1 week prior to spraying with HST inhibiting compounds. WT tobacco was included as a control.
(§7) The values in Tables 8 to 14 below refer to percentage of damage to the tested plants and show the damage scores for 20 populations of plants expressing either Arabidopsis WT HST gene (SEQ ID NO. 14), the Arabidopsis HST mutated gene according to SEQ ID NO. 27, the Arabidopsis HST mutated gene according to SEQ ID NO. 28, the Arabidopsis HST mutated gene according to SEQ ID NO. 29, the Arabidopsis HST mutated gene according to SEQ ID NO. 30, or the Arabidopsis HST mutated gene according to SEQ ID NO. 31. A control population of wild-type Samsun tobacco was also assessed for herbicide damage. […] However the mutated versions of the HST gene carrying the F276I, V277A, F280I or F280L mutations (SEQ ID NOs: 27, 28, 30 or 31) clearly display increased tolerance.

[2] = system: D4293 (V277A mutant Arabidopsis thaliana HST) containing tobacco plant; test: Herbicide damage score after spraying, Example 3; format: in vivo; settings: T1 B5u 500 gai/ha, averaged across transgenic population
Description: as §4, §5, §6, §7

[3] = system: D4295 (F280I mutant Arabidopsis thaliana HST) containing tobacco plant; test: Herbicide damage score after spraying, Example 3; format: in vivo; settings: T1 B5u 500 gai/ha, averaged across transgenic population
Description: as §4, §5, §6, §7

WT tobacco = test: Herbicide damage score after spraying, Example 3; format: in vivo; settings: T1 B5u 500 gai/ha; WT tobacco control; per plant
Description: as §4, §5, §6, §7

For `Cc1nn(C)c(=O)c(-c2c(F)ccc(Cl)c2CCc2ccc(C(F)(F)F)cc2)c1OC(=O)C(C)C` [B5u, [5-[3-chloro-6-fluoro-2-[2-[4-(trifluoromethyl)phenyl]ethyl]phenyl]-1,3-dimethyl-6-oxo-pyridazin-4-yl]2-methylpropanoate], the “LD (lethal dose)” value (Cf WT) was 6.25 ppm, the “LD (lethal dose)” value (Cf-496-15) was greater than 100 ppm and the “LD (lethal dose)” value (Cf-496-19) was greater than 100 ppm. The “LD (lethal dose)” value (Cf-496-28) was greater than 100 ppm, the “LD (lethal dose)” value (Cf-496-8) was greater than 100 ppm and the “LD (lethal dose)” value (Cf-496-94) was greater than 100 ppm. The “LD (lethal dose)” value (Cf-496-13) was 6.25 ppm, the “LD (lethal dose)” value (Cf-496-21) was greater than 100 ppm and the “LD (lethal dose)” value (Cf-496-35) was greater than 100 ppm. For the same molecule, the “LD (lethal dose)” value (Cf-496-51) was greater than 100 ppm, the “LD (lethal dose)” value (Cf-496-54) was greater than 100 ppm and the “LD (lethal dose)” value (Cf-496-65) was greater than 100 ppm. For the same molecule, the “LD (lethal dose)” value (Cf-496-78) was greater than 100 ppm, the “LD (lethal dose)” value (Cf-496-82) was greater than 100 ppm and the “LD (lethal dose)” value (Cf-496-85) was greater than 100 ppm. For the same molecule, the “LD (lethal dose)” value (Cf-496-88) was greater than 100 ppm, the “LD (lethal dose)” value (Cf-496-90) was greater than 100 ppm and the “LD (lethal dose)” value (Cf-496-97) was greater than 100 ppm. The “LD (lethal dose)” value (Cf-496-75) was 6.25 ppm, the Average percentage damage [1] was 28% and the Average percentage damage [2] was 22%. The Average percentage damage [3] was 35% and the percentage of damage (WT tobacco) was 95% and 90%.
